# Reference: patent US8481459B2, “Chemical inhibitors of ethylene biosynthesis” (Academia Sinica, priority 2010, dated 2013)
# System: gene expression in etiolated eto1-4 seedlings
# Assay: Transcriptional profiling (ATH1 GeneChip microarray) of etiolated eto1-4 seedlings
# Format: in vivo, Arabidopsis thaliana
# Conditions: ratio eto1-4 treated to eto1-4 (no treatment)
# Procedure: For chemical treatments, seeds were sown on 0.5×MS agar medium supplemented with 10 μM chemicals (AVG, compounds 9393, 9370, and 7303) or DMSO (as control). Arabidopsis seeds were stratified in the dark at 4° C. for 4 days, then germinated in the dark for 3 days at 22° C. Approximately 2,000 etiolated seedlings of the wild type or eto1-4 were used to collect tissues for preparation of total RNA in each microarray experiment with Arabidopsis ATH1 GeneChip (Affymetrix). Extraction of RNA followed an established protocol (Chang, et al. (1993) Plant Mol. Biol. Rep. 11, 113-117). Total RNA (10 μg) was used to prepare biotinylated cRNA for hybridization to ATH1 GeneChip in the experiments disclosed herein. Experiments were repeated by 2 independent biological duplicates, and candidate genes present in both experiments were selected for further analysis. The MASS method was used for data analysis and normalization by all sample medium. Candidate genes were selected by the following criteria. First, genes with 1.5-fold differential expression between the wild type and eto1-4 were selected as the master gene pool, which was then used for comparison in treatments with AVG and individual exemplary compounds. Data were presented in hierarchical clustering and Venn diagram format. Agilent GeneSpring GX and Bioconductor software were used to analyze the expression profile data. Gene Ontology descriptions were generated by GeneSpring GX and further referred to the TAR GO database. Raw data are available in the GEO database (http://www.ncbi.nlm.nih.gov/geo) with Accession no. GSE20897.
# The filtered and normalized expression data set from 22810 probes on the ATH1 Genechip was used for hierarchical clustering of gene expression profiles for comparison between AVG and the exemplary invention compounds in eto1-4. It was identified that 1,446 genes show at least 1.5-fold difference in expression between the WT and eto1-4 and used them as the master gene pool for clustering analysis (FIG. 7A). […] These genes likely contribute to the etiolated phenotype of eto1-4 by responding to elevated endogenous ethylene. To determine whether the exemplary compounds have specific r overlapping functions with AVG to suppress the eto1-4 phenotype, genes that are regulated by individual exemplary invention compounds and AVG for Venn diagram analysis were clustered (FIG. 7B). More than 63% of genes (356/561 for compound 9393; 389/561 for compound 9370; 399/561 for compound 7303; FIG. 7B) with expression associated with AVG were co-regulated by the exemplary invention compounds, which indicates an overlap function in suppression of the ethylene phenotype in eto1-4. […] Next genes co-regulated by all of the exemplary invention compounds and AVG were examined by performing a clustering analysis using the co-regulated genes identified in FIG. 7B: 356 (compound 9393 vs AVG), 389 (compound 9370 vs AVG) and 399 genes (compound 7303 vs AVG). It was uncovered that 276 genes were co-regulated by all of the exemplary invention compounds and AVG (FIG. 7C and Table 2). On the basis of GO descriptions generated by Gene Spring GX and TAIR database, the 276 genes were divided into subgroups related to their biological functions (Table 2). […] In addition, stress- and pathogenesis-related genes were among the co-regulated genes, possibly because ethylene is involved in both biotic and abiotic stresses.
# Genes (1446 non-redundant loci) were selected by 1.5-fold differential expression between eto1-4 and WT as the master pool for analysis. These genes were used for comparison between chemical treatments by AVG and the exemplary invention compounds. The finalized 276 genes that are co-regulated by AVG and all of the exemplary invention compounds are shown. Locus ID also present in Nemhauser et al. (Nemhauser, et al. (2006) Cell 126, 467-475).
compound,measurement,value
COc1ccc(C2CC(=O)c3cnc(Nc4ccccc4)nc3C2)cc1 (centres unmarked) [Compound 7303],"Signal Fold Change AT3G14850, unknown biological function",0.13
same,Signal Fold Change AT3G15890 protein kinase,2.14
same,Signal Fold Change AT3G16450 jacalin lectin protein,3.13
same,Signal Fold Change AT3G16470 jacalin lectin protein,6.91
same,"Signal Fold Change AT3G16690, unknown biological function",4.80
same,"Signal Fold Change AT3G17680, unknown biological function",0.17
same,Signal Fold Change AT3G20130 cytochrome P450,1.89
same,Signal Fold Change AT3G21770 peroxidase 30,1.84
same,Signal Fold Change AT3G22620 lipid transfer protein,2.70
same,"Signal Fold Change AT3G23150 ethylene receptor, putative (ETR2)",0.18
same,"Signal Fold Change AT3G23800, unknown biological function",0.33
same,"Signal Fold Change AT3G24670, unknown biological function",0.38
same,Signal Fold Change AT3G25710 bHLH protein,2.51
same,Signal Fold Change AT3G25730 AP2-containing transcription factor,0.21
same,Signal Fold Change AT3G25980 mitotic spindle checkpoint protein,2.49
same,Signal Fold Change AT3G27580 protein kinase,0.46
same,"Signal Fold Change AT3G28290, unknown biological function",0.27
same,Signal Fold Change AT3G29250 short-chain dehydrogenase,20.57
same,"Signal Fold Change AT3G30775 proline oxidase, mitochondrial",4.43
same,Signal Fold Change AT3G43270 pectinesterase protein,0.33
same,"Signal Fold Change AT3G44820, response to light stimulus, phototropic-responsive NPH3 protein",2.99
same,Signal Fold Change AT3G44990 endo-xyloglucan transferase,0.21
same,Signal Fold Change AT3G45710 proton-dependent oligopeptide transport (POT) protein,4.30
same,Signal Fold Change AT3G46130 myb transcription factor (MYB48),2.20
same,Signal Fold Change AT3G46700 UDP-glucosyl transferase,7.33
same,"Signal Fold Change AT3G47210, unknown biological function",3.50
same,"Signal Fold Change AT3G47250, unknown biological function",5.15
same,Signal Fold Change AT3G49780 phytosulfokines 3 (PSK3),9.23
same,Signal Fold Change AT3G50660 steroid 22-alpha-hydroxylase,4.40
same,"Signal Fold Change AT3G51410, unknown biological function",0.21
same,"Signal Fold Change AT3G51970, unknown biological function",3.02
same,Signal Fold Change AT3G52180 protein tyrosine phosphatase,0.22
same,Signal Fold Change AT3G52920 expressed protein (defense response),3.88
same,"Signal Fold Change AT3G53540, unknown biological function",0.41
same,"Signal Fold Change AT3G56480, unknown biological function",2.86
same,Signal Fold Change AT3G58710 WRKY transcription factor,2.61
same,"Signal Fold Change AT3G59370, unknown biological function",3.33
same,Signal Fold Change AT3G59710 short-chain dehydrogenase,0.48
same,"Signal Fold Change AT3G59900, unknown biological function",0.39
same,"Signal Fold Change AT3G60520, unknown biological function",0.30
same,Signal Fold Change AT3G61160 shaggy-related protein kinase beta/ASK-beta (ASK2),5.02
same,Signal Fold Change AT4G00730 anthocyaninless2,0.54
same,"Signal Fold Change AT4G01410, unknown biological function",0.54
same,Signal Fold Change AT4G03140 short-chain dehydrogenase,0.23
same,"Signal Fold Change AT4G08300, unknown biological function",4.13
same,Signal Fold Change AT4G09570 calcium-dependent protein kinase,0.34
same,"Signal Fold Change AT4G10910, unknown biological function",4.49
same,Signal Fold Change AT4G11190 disease resistance-responsive protein,9.71
same,Signal Fold Change AT4G11280 ACC synthase 6,2.00
same,Signal Fold Change AT4G11310 cysteine proteinase,17.92
same,"Signal Fold Change AT4G12080, unknown biological function",2.09
same,Signal Fold Change AT4G12410 auxin-responsive protein,3.30
same,Signal Fold Change AT4G12480 lipid transfer protein,0.06
same,"Signal Fold Change AT4G13210, unknown biological function",0.27
same,Signal Fold Change AT4G15550 UDP-glucose:indole-3-acetate beta-D-glucosyltransferase,0.39
same,"Signal Fold Change AT4G15920, unknown biological function",23.20
same,Signal Fold Change AT4G17220 expressed protein (cytoskeleton organization and biogenesis),2.48
same,Signal Fold Change AT4G18340 glycosyl hydrolase,3.43
same,Signal Fold Change AT4G23410 senescence-associated protein,1.83
same,"Signal Fold Change AT4G25780, unknown biological function",9.00
same,Signal Fold Change AT4G26010 peroxidase,0.49
same,"Signal Fold Change AT4G28085, unknown biological function",3.16
same,"Signal Fold Change AT4G31000, unknown biological function",0.51
same,"Signal Fold Change AT4G32920, unknown biological function",2.81
same,"Signal Fold Change AT4G34560, unknown biological function",2.51
same,Signal Fold Change AT4G34760 auxin-responsive protein,0.22
same,Signal Fold Change AT4G35060 copper chaperone,3.90
same,"Signal Fold Change AT4G35150, unknown biological function",0.31
same,"Signal Fold Change AT4G36520, unknown biological function",2.99
same,Signal Fold Change AT4G37220 stress-responsive protein,15.33
same,"Signal Fold Change AT4G38690, signal transduction, 1-phosphatidylinositol",3.39
same,Signal Fold Change AT4G39210 ADP-glucose pyrophosphorylase,0.34
same,Signal Fold Change AT4G39800 inositol-3-phosphate synthase isozyme 1,2.69
same,"Signal Fold Change AT4G39840, unknown biological function",0.36
same,"Signal Fold Change AT5G01210, unknown biological function",0.37
same,"Signal Fold Change AT5G01300, unknown biological function",2.28
same,"Signal Fold Change AT5G02260, cell wall organization and biogenesis, expansin (EXP9)",0.23
same,Signal Fold Change AT5G02540 short-chain dehydrogenase,0.33
same,Signal Fold Change AT5G03160 DNAJ heat shock N-terminal domain-containing protein,2.24
same,"Signal Fold Change AT5G04080, unknown biological function",3.07
same,"Signal Fold Change AT5G05180, unknown biological function",1.98
same,"Signal Fold Change AT5G06200, unknown biological function",1.99
same,"Signal Fold Change AT5G08240, unknown biological function",2.56
same,Signal Fold Change AT5G08260 serine carboxypeptidase S10 protein,0.35
same,Signal Fold Change AT5G08370 alpha-galactosidase,3.99
same,Signal Fold Change AT5G09980 expressed protein (defense response),0.28
same,Signal Fold Change AT5G10720 sensory transduction histidine kinase,0.36
same,"Signal Fold Change AT5G11540, unknown biological function",6.69
same,"Signal Fold Change AT5G12170, response to cadmium ion, expressed protein",0.34
same,Signal Fold Change AT5G13870 endo-xyloglucan transferase,0.19
same,Signal Fold Change AT5G13910 AP2/EREBP-like transcription factor,0.40
same,Signal Fold Change AT5G14780 formate dehydrogenase,0.41
same,Signal Fold Change AT5G14920 gibberellin-regulated protein,0.33
same,"Signal Fold Change AT5G15290, unknown biological function",2.99
same,Signal Fold Change AT5G15530 biotin carboxyl carrier protein 2,0.43
same,Signal Fold Change AT5G15830 bZIP transcription factor protein,4.29
same,"Signal Fold Change AT5G18470, unknown biological function",0.24
same,Signal Fold Change AT5G18670 beta-amylase,0.63
same,"Signal Fold Change AT5G18860, unknown biological function",3.13
same,"Signal Fold Change AT5G18970, unknown biological function",3.98
same,Signal Fold Change AT5G19890 peroxidase,0.03
same,"Signal Fold Change AT5G19930, unknown biological function",1.84
same,Signal Fold Change AT5G20410 monogalactosyldiacylglycerol synthase,2.86
same,"Signal Fold Change AT5G22310, unknown biological function",0.46
same,Signal Fold Change AT5G22860 serine carboxypeptidase S28 protein,3.07
same,"Signal Fold Change AT5G23750, unknown biological function",4.93
same,"Signal Fold Change AT5G24870, unknown biological function",2.71
same,Signal Fold Change AT5G25140 cytochrome P450,6.66
same,Signal Fold Change AT5G25160 zinc finger (C2H2 type) protein,2.70
same,Signal Fold Change AT5G25190 ethylene-responsive element-binding protein,0.25
same,"Signal Fold Change AT5G34940, unknown biological function",0.44
same,"Signal Fold Change AT5G37300, unknown biological function",5.67
same,"Signal Fold Change AT5G38930, unknown biological function",0.16
same,Signal Fold Change AT5G39860 bHLH protein,4.44
same,Signal Fold Change AT5G41900 hydrolase,4.02
same,"Signal Fold Change AT5G44410, unknown biological function",2.89
same,"Signal Fold Change AT5G44580, unknown biological function",0.14
same,Signal Fold Change AT5G46890 lipid transfer protein,3.10
same,"Signal Fold Change AT5G47240, unknown biological function",8.92
same,Signal Fold Change AT5G47330 palmitoyl protein thioesterase protein,2.34
same,Signal Fold Change AT5G47450 major intrinsic protein,2.81
same,"Signal Fold Change AT5G47950, unknown biological function",4.37
same,Signal Fold Change AT5G48490 lipid transfer protein,3.78
same,"Signal Fold Change AT5G48900, unknown biological function",0.58
same,"Signal Fold Change AT5G49900, unknown biological function",3.82
same,Signal Fold Change AT5G50720 ABA-responsive protein (HVA22e),2.97
same,Signal Fold Change AT5G52120 SKP1 interacting partner 3 protein,11.57
same,"Signal Fold Change AT5G53190, unknown biological function",7.32
same,"Signal Fold Change AT5G53830, unknown biological function",0.30
same,"Signal Fold Change AT5G56320, cell wall organization and biogenesis, expansin (EXP14)",4.57
same,"Signal Fold Change AT5G58660, unknown biological function",0.40
same,Signal Fold Change AT5G59540 oxidoreductase,0.34
same,Signal Fold Change AT5G63450 cytochrome P450,16.44
same,Signal Fold Change AT5G63650 serine/threonine protein kinase,0.59
same,Signal Fold Change AT5G65970 seven transmembrane MLO protein,2.84
same,"Signal Fold Change AT5G66310, microtubule-based movement, kinesin motor protein",0.48
same,Signal Fold Change AT5G66400 dehydrin (RAB18),1.10
same,"Signal Fold Change AT5G66440, unknown biological function",0.32
same,Signal Fold Change AT5G66460 (1-4)-beta-mannan endohydrolase,0.52
same,"Signal Fold Change AT5G66780, unknown biological function",1.48
